From publication PMC12362111, “Cu/Zn-superoxide dismutase naturally fused with a β-propeller lactonase in Deinococcus radiodurans” (The Journal of Biological Chemistry, 2025)

What was measured:
DrSOD^β-pro = target: T1, DrSOD^β-pro (Deinococcus radiodurans, UniProt Q9RYV4); assay: pH-indicator (p-nitrophenol, […] nm) lactonase assay; format: biochemical; conditions: pH 7.0, 20 mM CaCl2; 2 mM substrate
T1 construct: gene DR_A0202; C-terminal beta-propeller domain (Leu185-Phe462), N-terminal 6xHis removed with HRV3C, E. coli BL21(DE3), monomer and dimer

[1] = target: the molecule itself; assay: SEC-MALS; 25 μM protein loaded on a gel filtration column (LW-803, SHODEX); MN buffer (50 mM MOPS, 100 mM NaCl, pH 7.0) for the holo forms, MN buffer with 5 mM EDTA for the metal-free apo state; monomer against dimer

Row | Molecule | pH-indicator (p-nitrophenol, 405 nm) lactonase assay (DrSOD^β-pro) | stoichiometry N [1]
1 | O=C1Cc2ccccc2O1 [2-coumaranone] | lactonase activity of DrSOD toward 2-coumaranone was attributed to DrSOD^β-pro but not DrSOD^SOD | –
2 | six-bladed β-propeller domain of DrSOD (DrSOD^β-pro) (domain or fragment, Deinococcus radiodurans, UniProt Q9RYV4 185-462, looked up, β-propeller (SGL) domain of DrSOD (DRA0202), Deinococcus radiodurans, UniProt Q9RYV4, residues Leu185-Phe462; Eluted as a mixture of monomer and dimer; source: E. coli BL21(DE3), purified (cOmplete His-Tag column, HRV3C, gel filtration); not shown: His6, N-terminal, cleaved) LSVRDYALPGPVDHPEGVAYDAKKGLIYTGSAQNGTIYAINAQSGAVTKFQEGGAYGRQVALGLKVDPQGRLWIAGGAQGTVSILTPDGMTLAVLETPKSPRPYINDLVLAPDGNFYVTDSSRPVIFRVDKALKLTAWLDLAGTPIKYGPGVNLNGIAATPDGKYLLAVQLNTGELWRIDLKTKAVKKVMDGLVNGDGLLLDGRTLYVARNKDQVVAKVSLSADYGSGQLVAQEPLNGLRFPATLAKVGNDLVVTQAQLDRIGGTPETPFKLTRFAKF | – | 2
